Laboratory results from patent US20250082720A1, “NEW PEPTIDE AND USES THEREOF” (Neo Cremar Co., Ltd., priority 2021, published 2025).

What was measured:
[1] = tested on: gastrocnemius muscle of C57BL/6 mice; experiment: Myoregeneration after Ac-MIF2-NH2 injection and cardiotoxin (CTX) muscle injury; assay type: in vivo, mouse
Description: The male C57BL/6 mice were purchased from Dae Han Bio Link Co., Ltd., four of which per cage were kept in a temperature-controlled room with a 12-hour light cycle. The animals were fed with a standard rodent diet containing 4.0% (wt/wt) total fat (Rodent NIH-31 Open Formula Auto; Zeigler Bros., Inc., Gardners, PA, USA) and water. All experiments involving animals complied with the guidelines (YUMC-AEC2015-006) issued by the Animal Control Committee of Youngnam University's Animal Research Institute. The MSTN knock-out mouse was provided by a laboratory at Seoul National University. Normal, MSTN+/−(heterozygous), and MSTN−/−(homozygous) adipose tissues were fixed by collecting from 6-week-old mice and stored at −80° C. until required for analysis.
Muscle tissues containing paraffin was subjected to deparaffinization with xylene and ethanol and hydration, respectively, and the tissue was soaked in 0.3% hydrogen peroxide water (H2O2)/methanol for 15 minutes to stop endogenous peroxidase activity. Then, tissues were stained with hematoxylin/eosin for morphological observation or reacted with 1% normal goat serum at room temperature for 1 hour to block a reaction with non-specific antibodies, followed by a reaction with the primary antibody (1:50) at 4° C. for over 16 hours. After 16 hours, washing was performed 3 times with PBS, followed by a reaction with secondary antibody (1:100) with HRP conjugated at room temperature for 1 hour. Horse radish peroxidase-conjugated streptavidin was added to detect the expression of the protein, followed by observation under a microscope.
In order to observe the myoregeneration effect following MIF peptide injection, mice were injected with Ac-MIF2-NH2 peptide and injected/uninjected with cardiotoxin (hereinafter referred to as CTX) into the muscle, followed by observation of the morphology and regeneration of the muscle. A day after C57BL/6 mice were injected with Ac-MIF2-NH2 peptide (1.125 mM), […] cardiotoxin was injected into the gastrocnemius. Muscle tissues were sampled 7 days after CTX injection.
Paraffin-embedded muscle sections were deparaffinized using xylene, rehydrated using a concentration gradient of ethanol, stained with hematoxylin and eosin, observed under an optical microscope, magnified at 400× scale, and photographed, followed by measurement of the diameter of muscle fibers using Image J software.

3T3L1 cells = experiment: Expression of FMOD, MSTN and lipogenesis-related factors in 3T3L1 cells (real-time PCR, Western blot); assay type: cell-based, mouse; conditions: 3T3L1, compared to untreated cells, FIG. 13C
Experimental: After adding 1 ml of TRIzol™ reagent, the cells were crushed using a sonicator. After centrifugation of the crushed sample (12,000 rpm, 10 min, 4° C.), the supernatant was transferred to a new tube, added with 200 μl of chloroform, and left at room temperature for 10 minutes. After 10 minutes, centrifugation (12,000 rpm, 10 min, 4° C.) was performed, yielded a transparent supernatant. Next, 500 μl of isopropanol was added, the mixture was left for 10 minutes, and centrifugation was performed to obtain RNA pellets. […] Total RNA volume was measured by nanodrop, and the 18s and 28s bands were detected in 1.2% agarose gel. cDNA was synthesized with 2 μg of total RNA, random hexamer primers, and reverse transcriptase (25° C.: 10 min, 37° C.: 120 min, 85° C.: 5 min).
Real-time PCR (RT-PCR) was performed for detecting gene expression. For observation of real-time gene expression, gene expression was analyzed using the Power SYBR Green PCR Master Mix, which includes fluorescent materials of SYBR green (7500 Real-time PCR system). […] Gene expression values were analyzed through the analysis of c(t) values obtained through real-time PCR analysis (fold change 2-ΔΔCt formula). Setting the gene expression value of the untreated cells to 1, the gene expression value of the treated cells was calculated. […]

C2C12 cells = experiment: Scratch experiment, degree of cell recovery; assay type: cell-based, mouse; conditions: C2C12 100% grown, 1000 nM peptide, 1 day
Experimental: When the C2C12 cells were 100% grown, cells were scratches on the surface, treated with 1000 nM MIF2 or Ac-MIF2-NH2 peptides, and cultured for 1 day, followed by observation for a degree of cell recovery.

[2] = injected muscle, 7 days after CTX, FIG. 10B

Ac-VDFEAGDWFW-NH2 [Ac-MIF2-NH2, MIF2 peptide with acetylated N-terminus and amidated C-terminus]
muscle weight compared to muscle without injection ([1]; 7 days after CTX injection): no significant difference | diameter of the muscle fibers compared to muscles without injection ([1]; 7 days after CTX, FIG. 10C): increased | muscle weight ([1]; CTX + Ac-MIF2-NH2, 7 days after CTX injection): 0.147 ± 0.163 g | mRNA expression of Pax7, MYOD, MYOG, MYL2, and MYH in muscle ([1]; injected muscle, 7 days after CTX, FIG. 10A): significantly increased | MSTN protein expression in muscle [1, 2]: decreased | protein expression of Pax7, MYOD, MYOG, MYL2, and MYH in muscle [1, 2]: increased | expression of FMOD; MSTN; and lipogenesis-related mRNAs and proteins (CD36, CD163, and PPARγ) (3T3L1 cells): decreased | increase in scratch recovery degree compared to untreated cells (C2C12 cells): 26%
